Laboratory results: ChEMBL document CHEMBL4007454 (J Med Chem, 2017)
pIC50: −log10 of the molar value. Converted amounts (≈) assume the structure as drawn.

What was measured:
[1] = Cmax in Han-Wistar rat at 10 mg/kg, po measured after 15 to 480 mins by LC-MS/MS analysis; assay type: ADME, organism-based; conditions: in vivo, read-out: C0
[2] = Initial concentration in Han-Wistar rat at 2 mg/kg, iv measured after 2 to 480 mins by LC-MS/MS analysis; assay type: ADME, organism-based; conditions: in vivo
[3] = MRT in Han-Wistar rat at 10 mg/kg, po measured after 15 to 480 mins by LC-MS/MS analysis; assay type: ADME, organism-based; conditions: in vivo
[4] = Equilibrium solubility in fed state simulated intestinal fluid after 24 hrs by HPLC method; assay type: physicochemical
Mus musculus [5] = test: In vivo inhibition of LRRK2 Ser935 phosphorylation in mouse brain assessed as unbound plasma concentration causing reduction in ratio of phosphorylated Ser935 to total LRRK2 protein at 1 to 100 mg/kg, po administered 1 hr post treatment by Western blot analysis; assay type: functional, organism-based
[6] = Intrinsic clearance in rat hepatocytes assessed per million cells at 1 uM after 180 mins by LC-MS/MS analysis; assay type: ADME, cell-based, Hepatocyte; conditions: read-out: CLH
Cytochrome P450 2C9 = Cytochrome P450 2C9 (Homo sapiens, UniProt P11712); test: Inhibition of human CYP2C9; assay type: ADME
Cytochrome P450 2C9, sequence (P11712 whole entry): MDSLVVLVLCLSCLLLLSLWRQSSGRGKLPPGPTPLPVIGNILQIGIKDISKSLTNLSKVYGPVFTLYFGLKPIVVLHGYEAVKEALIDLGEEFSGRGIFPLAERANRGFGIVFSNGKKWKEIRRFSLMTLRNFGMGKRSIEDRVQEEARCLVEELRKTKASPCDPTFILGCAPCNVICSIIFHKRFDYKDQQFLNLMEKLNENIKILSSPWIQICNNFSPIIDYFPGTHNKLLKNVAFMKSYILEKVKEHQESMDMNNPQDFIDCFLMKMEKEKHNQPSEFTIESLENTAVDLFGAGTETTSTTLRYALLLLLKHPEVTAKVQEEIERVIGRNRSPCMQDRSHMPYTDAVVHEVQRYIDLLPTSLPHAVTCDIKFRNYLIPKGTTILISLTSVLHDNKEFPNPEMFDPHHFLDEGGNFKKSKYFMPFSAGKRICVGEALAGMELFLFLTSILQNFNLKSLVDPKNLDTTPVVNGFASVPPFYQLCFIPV

[7] = Equilibrium solubility in fasted state simulated intestinal fluid after 24 hrs by HPLC method; assay type: physicochemical
[8] = Intrinsic clearance in human hepatocytes assessed per million cells at 1 uM after 180 mins by LC-MS/MS analysis; assay type: ADME, cell-based, Hepatocyte; conditions: read-out: CLH
[9] = Oral bioavailability in Han-Wistar rat at 10 mg/kg, measured after 15 to 480 mins by LC-MS/MS analysis; assay type: ADME, organism-based; conditions: in vivo
[10] = Equilibrium solubility in pH 5 acetate buffer after 24 hrs by HPLC method; assay type: physicochemical
[11] = Equilibrium solubility in Water after 24 hrs by HPLC method; assay type: physicochemical
[12] = Fraction unbound in rat plasma at 10 uM after 4 hrs by rapid equilibrium dialysis method; assay type: ADME, cell-free
[13] = Clearance in Han-Wistar rat at 2 mg/kg, iv measured after 2 to 480 mins by LC-MS/MS analysis; assay type: ADME, organism-based; conditions: in vivo
Cytochrome P450 3A4 [14] = biological target: T1, Cytochrome P450 3A4 (Homo sapiens, UniProt P08684); test: Time dependent inhibition of human CYP3A4; assay type: ADME
T1 sequence (P08684 whole entry): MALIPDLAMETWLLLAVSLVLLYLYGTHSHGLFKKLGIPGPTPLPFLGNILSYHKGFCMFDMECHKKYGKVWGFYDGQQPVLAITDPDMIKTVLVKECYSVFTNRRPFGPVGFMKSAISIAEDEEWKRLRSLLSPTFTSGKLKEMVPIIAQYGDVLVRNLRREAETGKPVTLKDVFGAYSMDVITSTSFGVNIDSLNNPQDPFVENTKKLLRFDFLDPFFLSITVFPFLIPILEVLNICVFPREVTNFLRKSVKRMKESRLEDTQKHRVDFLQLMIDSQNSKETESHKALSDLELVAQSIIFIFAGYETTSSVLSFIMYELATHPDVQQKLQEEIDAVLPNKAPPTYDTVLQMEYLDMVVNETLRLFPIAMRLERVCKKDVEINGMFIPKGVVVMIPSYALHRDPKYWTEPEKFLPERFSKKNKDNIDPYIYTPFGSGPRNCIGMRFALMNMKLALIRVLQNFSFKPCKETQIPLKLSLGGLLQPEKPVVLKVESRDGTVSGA

[15] = AUC (0 to 8 hrs) in Han-Wistar rat at 2 mg/kg, iv measured after 2 to 480 mins by LC-MS/MS analysis; assay type: ADME, organism-based; design: time < 8 hr, dose 2 mg/kg, route intravenous; conditions: in vivo
[16] = MRT in Han-Wistar rat at 2 mg/kg, iv measured after 2 to 480 mins by LC-MS/MS analysis; assay type: ADME, organism-based; conditions: in vivo
Rattus norvegicus [17] = test: In vivo inhibition of LRRK2 Ser935 phosphorylation in CD rat brain cortex assessed as unbound plasma concentration causing reduction in ratio of phosphorylated Ser935 to total LRRK2 protein at 1 to 100 mg/kg, po administered 1 hr post treatment by Western blot analysis; assay type: functional
Mus musculus [18] = test: In vivo inhibition of LRRK2 Ser935 phosphorylation in mouse brain cortex assessed as reduction in ratio of phosphorylated Ser935 to total LRRK2 protein at =>10 mg/kg, po administered 1 hr prior to euthanasia measured by Western blot analysis; assay type: functional
[19] = Equilibrium solubility in simulated gastric fluid after 24 hrs by HPLC method; assay type: physicochemical
[20] = Half life in Han-Wistar rat at 2 mg/kg, iv measured after 2 to 480 mins by LC-MS/MS analysis; assay type: ADME, organism-based; conditions: in vivo
Rattus norvegicus [21] = test: In vivo inhibition of LRRK2 Ser935 phosphorylation in CD rat brain cortex assessed as reduction in ratio of phosphorylated Ser935 to total LRRK2 protein at => 30 mg/kg, po administered 1 hr post treatment by Western blot analysis; assay type: functional
[22] = AUC (0 to 8 hrs) in Han-Wistar rat at 10 mg/kg, po measured after 15 to 480 mins by LC-MS/MS analysis; assay type: ADME, organism-based; design: dose 10 mg/kg, time < 8 hr, route oral; conditions: in vivo
Rattus norvegicus [23] = test: In vivo inhibition of LRRK2 Ser935 phosphorylation in CD rat brain cortex assessed as unbound brain concentration causing reduction in ratio of phosphorylated Ser935 to total LRRK2 protein at 1 to 100 mg/kg, po administered 1 hr post treatment by Western blot analysis; assay type: functional
Mus musculus [24] = test: In vivo inhibition of LRRK2 Ser935 phosphorylation in mouse brain assessed as unbound brain concentration causing reduction in ratio of phosphorylated Ser935 to total LRRK2 protein at 1 to 100 mg/kg, po administered 1 hr post treatment by Western blot analysis; assay type: functional, organism-based
[25] = Equilibrium solubility in pH 6.5 Phosphate buffer after 24 hrs by HPLC method; assay type: physicochemical
Cytochrome P450 3A4 [26] = biological target: T1, Cytochrome P450 3A4; test: Inhibition of human CYP3A4; assay type: ADME
[27] = Tmax in Han-Wistar rat at 10 mg/kg, po measured after 15 to 480 mins by LC-MS/MS analysis; assay type: ADME, organism-based; conditions: in vivo
Cytochrome P450 2D6 = Cytochrome P450 2D6 (Homo sapiens, UniProt P10635); test: Inhibition of human CYP2D6; assay type: ADME
Cytochrome P450 2D6, sequence (P10635 whole entry): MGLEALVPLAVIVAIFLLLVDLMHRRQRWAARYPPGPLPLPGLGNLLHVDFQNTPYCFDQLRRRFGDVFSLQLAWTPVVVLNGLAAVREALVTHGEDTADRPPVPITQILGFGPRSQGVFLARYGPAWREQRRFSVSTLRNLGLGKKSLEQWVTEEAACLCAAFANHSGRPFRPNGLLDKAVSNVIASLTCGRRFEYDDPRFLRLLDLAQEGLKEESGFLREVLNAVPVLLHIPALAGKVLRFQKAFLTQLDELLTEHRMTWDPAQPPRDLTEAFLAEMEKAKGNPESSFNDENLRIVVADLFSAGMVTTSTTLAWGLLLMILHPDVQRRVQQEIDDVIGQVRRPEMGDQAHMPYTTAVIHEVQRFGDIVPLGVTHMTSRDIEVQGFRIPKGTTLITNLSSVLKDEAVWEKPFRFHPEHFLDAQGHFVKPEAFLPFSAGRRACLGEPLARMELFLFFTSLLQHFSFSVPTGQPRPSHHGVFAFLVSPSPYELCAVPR

Compound: C[C@@H]1CN(c2cc(-c3n[nH]c4ccc(OC5(C)CC5)cc34)ncn2)C[C@H](C)O1 [MLi-2]
- Cmax [1]: 0.48 µM
- C0 [2]: 1.17 µM
- MRT [3]: 4 h
- solubility thermodynamic at 24 h [4]: 0.014 to 0.038 mg/mL (≈ 36.9 to 100 µM)
- pIC50 (Mus musculus [5]): 8.96
- hepatocyte CLint at 1 µM [6]: 15 µL/min/1e6 cells
- pIC50 (Cytochrome P450 2C9): < 4.30
- solubility thermodynamic at 24 h [7]: 0.014 to 0.038 mg/mL (≈ 36.9 to 100 µM)
- hepatocyte CLint at 1 µM [8]: 8 µL/min/1e6 cells
- bioavailability [9]: 39%
- solubility thermodynamic at 24 h [10]: 0.014 to 0.038 mg/mL (≈ 36.9 to 100 µM)
- solubility thermodynamic at 24 h [11]: 0.014 to 0.038 mg/mL (≈ 36.9 to 100 µM)
- fraction unbound at 4 h, 10 µM [12]: 0.012
- clearance [13]: 9.18 L/h/kg
- TDI (Cytochrome P450 3A4 [14]): Not Active
- AUC(0-t) at 8 h [15]: 660 nM·h
- MRT [16]: 1.7 h
- fIC50 (Rattus norvegicus [17]): 0.2 nM
- inhibition (INH) (Mus musculus [18]): >90%
- solubility thermodynamic at 24 h [19]: 0.014 to 0.038 mg/mL (≈ 36.9 to 100 µM)
- half-life [20]: 1.8 h
- inhibition (INH) (Rattus norvegicus [21]): >90%
- AUC(0-t) at 8 h [22]: 1300 nM·h
- fIC50 (Rattus norvegicus [23]): 0.18 nM
- pIC50 (Mus musculus [24]): 9.10
- solubility thermodynamic at 24 h [25]: 0.014 to 0.038 mg/mL (≈ 36.9 to 100 µM)
- pIC50 (Cytochrome P450 3A4 [26]): < 4.30
- Tmax [27]: 1.3 h
- pIC50 (Cytochrome P450 2D6): < 4.30
